Reference: patent US20040072319A1, “Molecules that modulate ubiquintin-dependent proteolysis and methods for identifying same” (priority 2003, published 2004)
pKd: −log10 of the molar value. Blank lines part the entries; values can stand above or below the molecule they belong to. Peptide text beside a SMILES is read from it.

Key:
[1] = biological target: Cdc4 (yeast F-box protein, recombinant, expressed in baculovirus-infected insect cells) (yeast) (UniProt P07834); experiment: equilibrium binding (Table in FIG. 3)
Skp1-Cdc4 complex [2] = biological target: T1, Skp1-Cdc4 complex (yeast, UniProt P07834 1-779; P52286 1-194, limits assumed); experiment: fluorescence polarization, 5 nM fluorescein-labeled peptide, Cdc4/Skp1 titrated
T1 construct: Purified complex (Gst removed by TEV, size exclusion) for fluorescence polarization and SPOTS arrays; also called Cdc4/Skp1; cdc4/skp1 complex
Target sequence in this assay (P07834 whole entry, chain 1 of 2): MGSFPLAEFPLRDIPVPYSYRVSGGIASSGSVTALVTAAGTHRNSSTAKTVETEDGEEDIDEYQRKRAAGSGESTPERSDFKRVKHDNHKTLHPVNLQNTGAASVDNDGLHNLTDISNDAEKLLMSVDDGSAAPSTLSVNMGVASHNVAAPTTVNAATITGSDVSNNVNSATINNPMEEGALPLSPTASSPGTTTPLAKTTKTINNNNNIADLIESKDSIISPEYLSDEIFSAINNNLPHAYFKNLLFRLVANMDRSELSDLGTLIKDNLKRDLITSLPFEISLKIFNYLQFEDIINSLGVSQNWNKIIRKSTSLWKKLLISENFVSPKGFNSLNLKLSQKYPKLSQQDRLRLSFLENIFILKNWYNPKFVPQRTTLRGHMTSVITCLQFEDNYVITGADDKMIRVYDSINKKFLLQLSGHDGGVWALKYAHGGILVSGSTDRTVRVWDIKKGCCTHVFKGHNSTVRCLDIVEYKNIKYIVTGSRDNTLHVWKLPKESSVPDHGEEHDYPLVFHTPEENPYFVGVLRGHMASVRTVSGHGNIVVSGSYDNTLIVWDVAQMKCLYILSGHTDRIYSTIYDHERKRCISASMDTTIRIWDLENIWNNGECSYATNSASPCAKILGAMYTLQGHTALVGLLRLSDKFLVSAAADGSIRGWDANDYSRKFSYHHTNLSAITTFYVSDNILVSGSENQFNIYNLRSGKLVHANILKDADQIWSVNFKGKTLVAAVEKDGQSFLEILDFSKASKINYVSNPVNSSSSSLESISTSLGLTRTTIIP
Target sequence in this assay (P52286 whole entry, chain 2 of 2): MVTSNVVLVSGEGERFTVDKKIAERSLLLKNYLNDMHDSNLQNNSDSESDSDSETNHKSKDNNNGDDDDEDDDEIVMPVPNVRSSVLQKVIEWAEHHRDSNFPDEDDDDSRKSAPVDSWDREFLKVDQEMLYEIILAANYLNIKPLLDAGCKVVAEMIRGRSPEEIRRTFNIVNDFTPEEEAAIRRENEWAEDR

[3] = biological target: Cdc4 (yeast F-box protein, recombinant, expressed in baculovirus-infected insect cells) (yeast) (UniProt P07834); experiment: equilibrium binding
Skp1-Cdc4 complex [4] = biological target: T1, Skp1-Cdc4 complex; experiment: fluorescence polarization
Target sequence in this assay (P52286 whole entry, one chain of several): as the sequence (P52286 whole entry, chain 2 of 2) above

[5] = biological target: Cdc4 (yeast F-box protein, recombinant, expressed in baculovirus-infected insect cells) (yeast) (UniProt P07834); experiment: equilibrium binding, fluorescence polarization
Cdc4 [6] = biological target: T2, Cdc4 (Saccharomyces cerevisiae, UniProt P07834); experiment: Capture of Cdc4 from baculovirus-infected insect cell lysates by biotinylated peptide; format: binding, yeast; design: made in house; host or cells: Sf9 insect cells infected with recombinant baculovirus (crude lysate); settings: insect cells infected with Cdc4 baculovirus
Source text: (§1) SCF complexes were purified from SF9 cells infected with recombinant baculoviruses and used in binding assays and ubiquitination reactions essentially as described (7). Gst-Skp1 expressed in BL21 codon plus cells (Stratagene) then purified on glutathione resin was used to capture full Cdc4 from insect cell lysates. Truncated forms of Cdc4 were enriched prior to Gst-Skp1 capture by affinity purification of hexahistidine fusion proteins on a metal chelate column. The Skp1-Cdc4 complexes were released from the Gst moiety by cleavage with TEV protease and further purified by size exclusion chromatography on a Superdex S75 or S200 column. Biotin labeled […]p[…] (SEQ ID NO. 1), […] (SEQ ID NO. 12), and APPLSQEpTFSDLWK (SEQ ID NO. 13) were synthesized by addition of d-biotin (Sigma) with an Fmoc-e-aminocaproic acid (Bachem) spacer to carboxy-terminal peptides. […] Streptavidin-agarose beads (Sigma) were incubated in the presence of biotinylated peptide for 90 min. at 4° C. Beads were washed 3 times and then incubated with lysates from Cdc4 expressing baculovirus infected Sf9 cells. Beads were washed 4 times, after which SDS-PAGE gel loading buffer was added and the beads were boiled for 5 min. Proteins were separated by SDS-PAGE and visualized by silver stain. Peptide out-competition of phosphorylated substrates was carried out with immunopurified Skp1^FLAG-Cdc4 from insect cells, which were incubated with phosphopeptides prior to addition of phospho-Sic1 or phospho-Cyclin E-Cdk2. For kinase inhibition assays, purified recombinant Clb5-Cdc28 complex (30 ng) was incubated with mutant forms of Sic1 (40 ng) and histone H1 (HH1, 2 μg) for 1 h on ice prior to addition of [^32P]-γ-ATP and incubation at 25° C. for 30 min. Samples were separated by SDS-PAGE and visualized by autoradiography.
Target sequence in this assay (P07834 whole entry, the tested form may be a part): as the sequence (P07834 whole entry, chain 1 of 2) above

SCFcdc4 = biological target: T3, SCFcdc4 (Saccharomyces cerevisiae, UniProt P07834); experiment: In vitro ubiquitination of substrates by SCFcdc4 in presence of peptide; format: biochemical, yeast; settings: excess peptide
T3 construct: made in house; host or cells: SF9 cells infected with recombinant baculoviruses
Source text: as §1, with “Peptide out-competition of phosphorylated substrates was carried out with immunopurified Skp1^FLAG-Cdc4 from insect cells, which were incubated with phosphopeptides prior to addition of phospho-Sic1 or phospho-Cyclin E-Cdk2. For kinase inhibition assays, purified recombinant Clb5-Cdc28 complex (30 ng) was incubated with mutant forms of Sic1 (40 ng) and histone H1 (HH1, 2 μg) for 1 h on ice prior to addition of [^32P]-γ-ATP and incubation at 25° C. for 30 min. Samples were separated by SDS-PAGE and visualized by autoradiography.” left out

Cdc4 [7] = biological target: T2, Cdc4; experiment: Fluorescence polarization equilibrium binding of peptides to Cdc4; design: made in house; host or cells: Cdc4: baculovirus-infected insect (Sf9) cells; Gst-Skp1: E. coli BL21 codon plus; species or system yeast; settings: Hill plot of peptide binding to Cdc4
Experimental: Equilibrium binding constant determination was carried out using fluorescence polarization on a Beacon 2000 Fluorescence Polarization System (Pan Vera, Wis.) equipped with a 100 μL sample chamber. Fluorescein-labeled probes were prepared through the reaction of carboxyterminal-peptides with 5-(and-6)-carboxyfluorescein succinimidyl ester (Molecular Probes), purified by reverse-phase HPLC, and confirmed by mass spectrometry. Binding studies were conducted with 5 nM fluorescein-labeled probe dissolved in PBS containing 100 μg/ml BSA and 1 mM dithiothreitol. Reaction mixtures were allowed to equilibrate for 10 minutes at room temperature prior to each measurement. All fluorescence polarization measurements were conducted at 22° C.
Target sequence in this assay (P07834 whole entry, the tested form may be a part): as the sequence (P07834 whole entry, chain 1 of 2) above
Target sequence in this assay (P52286 whole entry partner, the tested form may be a part): as the sequence (P52286 whole entry, chain 2 of 2) above

Cdc4-Skp1 complexes = biological target: T4, Cdc4-Skp1 complexes (Saccharomyces cerevisiae, UniProt P07834); experiment: Peptide out-competition of phosphorylated substrates binding to Cdc4-Skp1; design: species or system yeast; settings: peptide 3, 17, 68 μM in FIG. 6f
T4 construct: made in house; host or cells: insect cells (baculovirus)
Source text: as §1

T4 sequence (P07834 whole entry): as the sequence (P07834 whole entry, chain 1 of 2) above
T4 sequence (P52286 whole entry partner): as the sequence (P52286 whole entry, chain 2 of 2) above
T3 sequence (P07834 whole entry): as the sequence (P07834 whole entry, chain 1 of 2) above
T3 sequence (P52286 whole entry partner): as the sequence (P52286 whole entry, chain 2 of 2) above
T3 sequence (Q12018 whole entry partner): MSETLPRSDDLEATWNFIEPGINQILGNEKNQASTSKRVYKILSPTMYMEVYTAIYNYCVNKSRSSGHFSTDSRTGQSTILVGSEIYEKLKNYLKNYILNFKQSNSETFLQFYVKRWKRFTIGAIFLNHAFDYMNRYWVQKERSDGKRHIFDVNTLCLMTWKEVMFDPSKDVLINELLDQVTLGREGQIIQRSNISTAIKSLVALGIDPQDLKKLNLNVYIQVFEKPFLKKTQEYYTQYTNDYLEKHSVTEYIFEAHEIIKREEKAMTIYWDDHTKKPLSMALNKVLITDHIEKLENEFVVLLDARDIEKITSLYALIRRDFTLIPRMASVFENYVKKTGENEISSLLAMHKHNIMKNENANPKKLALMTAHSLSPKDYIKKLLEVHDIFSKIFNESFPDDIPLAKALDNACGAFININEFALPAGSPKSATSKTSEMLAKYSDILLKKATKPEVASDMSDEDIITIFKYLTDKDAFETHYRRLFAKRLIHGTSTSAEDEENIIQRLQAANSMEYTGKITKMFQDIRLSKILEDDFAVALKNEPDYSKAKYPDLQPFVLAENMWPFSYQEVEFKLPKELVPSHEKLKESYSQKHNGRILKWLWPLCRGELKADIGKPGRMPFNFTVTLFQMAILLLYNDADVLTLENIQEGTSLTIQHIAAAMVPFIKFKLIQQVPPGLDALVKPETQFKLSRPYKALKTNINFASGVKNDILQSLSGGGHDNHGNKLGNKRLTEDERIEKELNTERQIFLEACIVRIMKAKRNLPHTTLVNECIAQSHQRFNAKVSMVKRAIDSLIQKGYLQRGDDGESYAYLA
Sequence of Cdc4 (yeast F-box protein, recombinant, expressed in baculovirus-infected insect cells) (yeast) (P07834 whole entry): as the sequence (P07834 whole entry, chain 1 of 2) above

pKd [1]: 6.17
pKd (Skp1-Cdc4 complex [2]): 6.06
Molecule: Gcn4-9mer FLPpTPVLED (peptide)

pKd [3]: 6.12
pKd (Skp1-Cdc4 complex [2]): 6.05
Molecule: Cdc 16 peptide LSKNLLpTPQEEWD

fold lower affinity (against the phosphothreonine peptide) (Skp1-Cdc4 complex [4]): 6 fold
fold lower affinity (against the phosphothreonine cyclin E peptide) [5]: 6 fold
Molecule: CycEpS-9mer GLLpSPPQSG (peptide)

Molecule: CC(C)C[C@H](NC(=O)CNC(=O)[C@H](CO)NC(=O)[C@@H]1CCCN1C(=O)[C@H](CC(C)C)NC(=O)[C@@H]1CCCN1C(=O)[C@H](CO)NC(=O)[C@H](C)N)C(=O)N[C@@H](CC(C)C)C(=O)N[C@H](C(=O)N1CCC[C@H]1C(=O)N1CCC[C@H]1C(=O)N[C@@H](CCC(N)=O)C(=O)N[C@@H](CO)C(=O)NCC(=O)N[C@@H](CCCCN)C(=O)N[C@@H](CCCCN)C(=O)N[C@@H](CCC(N)=O)C(=O)N[C@@H](CO)C(=O)O)[C@@H](C)OP(=O)(O)O [CycE-19mer, ASPLPSGLLpTPPQSGKKQS] (HELM PEPTIDE1{A.S.P.L.P.S.G.L.L.[C[C@@H](OP(=O)(O)O)[C@H](N[*:1])C(=O)[*:2]].P.P.Q.S.G.K.K.Q.S}$$$$V2.0)
capture of Cdc4 from lysates by biotinylated peptide (Cdc4 [6]; listed as CycE19-pT380): able to capture Cdc4
capture of Cdc4 from lysates by biotinylated peptide (Cdc4 [6]; listed as CycE^19-pT380): captures recombinant Cdc4
capture of Cdc4 from lysates by biotinylated peptide (Cdc4 [6]; listed as cycE19P): capture of Cdc4
capture of Cdc4 from lysates by biotinylated peptide (Cdc4 [6]; listed as cycEpT19mer): able to precipitate cdc4
block of ubiquitination of SCFcdc4 substrates (SCFcdc4; listed as CycE19-pT380): able to out-compete
block of ubiquitination of SCFcdc4 substrates (SCFcdc4; listed as cycE19P): blocked
Hill coefficient (Cdc4 [7]): 0.99
competition with substrates (Sic1, cyclin E1, Far1) for binding to Cdc4 (Cdc4-Skp1 complexes; listed as CycE19-pT380): able to out-compete
competition with substrates (Sic1, cyclin E1, Far1) for binding to Cdc4 (Cdc4-Skp1 complexes; listed as CycE^19-pT380): out-competes binding of Sic1 and cyclin E1
competition with substrates (Sic1, cyclin E1, Far1) for binding to Cdc4 (Cdc4-Skp1 complexes; listed as cycE19P): able to compete
competition with substrates (Sic1, cyclin E1, Far1) for binding to Cdc4 (Cdc4-Skp1 complexes; listed as cycEpT): inhibits the interaction
competition with substrates (Sic1, cyclin E1, Far1) for binding to Cdc4 (Cdc4-Skp1 complexes; listed as cyclin E phosphopeptide): competed
